Reference: patent publication US6849722B2, “Polymerized oligopeptide-surfactant chiral micelles” (Board of Supervisors of Louisiana State University and …, priority 1998, dated 2005)

Columns and labels:
[1] = Effective electrophoretic mobility by capillary zone electrophoresis/indirect photometric detection; type: physicochemical; details: 100 mM boric acid and 5 mM Na2B4O7, pH 8.0; NMS light-absorbing electrolyte
[2] = Critical micelle concentration by surface tension measurement; type: physicochemical; details: in pure water
Procedure: Table 1 compares the structural features and physicochemical properties of L-SUV and L-SUVV. The critical micelle concentration (“CMC”) for both chiral surfactants was measured by following a linear decrease in surface tension as surfactant concentration increased, up to a point. After this point, no appreciable change in surface tension was observed. The point of intersection of the two lines (the linear decrease and the flat line thereafter) was taken as the CMC of the surfactants. The greater hydrophobicity of L-SUVV compared to L-SUV gave the former a lower CMC. In addition, an increase in the molecular weight decreased the mobility of L-SUVV toward the injector end. Thus, L-SUVV eluted faster than L-SUV, as it was carried more rapidly by bulk electroosmotic flow (EOF) towards the detection window.
All surfactants in this study were synthesized according to the procedure of Wang, J.; Warner, I. M. Anal. Chem. 1994, 66, 3773-3776. […] The critical micelle concentrations of the surfactants were determined by surface tension measurements as previously described. […] These numbers were calculated from average molecular weights as determined by ultracentrifugation. All monomers and polymers used in this study were 99% pure or better, as determined from elemental analysis.

[3] = cited from earlier work

In the case of “sodium N-undecylenyl-L-valine-L-valine [L-U-Val-Val]”, the “effective electrophoretic mobility (μep)” value [1] is reported as −1.2 × 10^−4 cm^−2 V^−1 s^−1 and the “critical micelle concentration (CMC)” value [2] is reported as 10 mM.

In the case of tris (hydroxymethyl)aminomethane, the pKa [3] is listed as “around 8”.
